Molecules are shown by their SMILES.

The target in the first assay is T1, Human Recombinant Matriptase 2 (Homo sapiens, UniProt Q8IU80).
T1 construct: purchased Enzo Life Sciences (an in-house preparation was also used) ALX-201-752-1
T1 sequence (Q8IU80 1-811): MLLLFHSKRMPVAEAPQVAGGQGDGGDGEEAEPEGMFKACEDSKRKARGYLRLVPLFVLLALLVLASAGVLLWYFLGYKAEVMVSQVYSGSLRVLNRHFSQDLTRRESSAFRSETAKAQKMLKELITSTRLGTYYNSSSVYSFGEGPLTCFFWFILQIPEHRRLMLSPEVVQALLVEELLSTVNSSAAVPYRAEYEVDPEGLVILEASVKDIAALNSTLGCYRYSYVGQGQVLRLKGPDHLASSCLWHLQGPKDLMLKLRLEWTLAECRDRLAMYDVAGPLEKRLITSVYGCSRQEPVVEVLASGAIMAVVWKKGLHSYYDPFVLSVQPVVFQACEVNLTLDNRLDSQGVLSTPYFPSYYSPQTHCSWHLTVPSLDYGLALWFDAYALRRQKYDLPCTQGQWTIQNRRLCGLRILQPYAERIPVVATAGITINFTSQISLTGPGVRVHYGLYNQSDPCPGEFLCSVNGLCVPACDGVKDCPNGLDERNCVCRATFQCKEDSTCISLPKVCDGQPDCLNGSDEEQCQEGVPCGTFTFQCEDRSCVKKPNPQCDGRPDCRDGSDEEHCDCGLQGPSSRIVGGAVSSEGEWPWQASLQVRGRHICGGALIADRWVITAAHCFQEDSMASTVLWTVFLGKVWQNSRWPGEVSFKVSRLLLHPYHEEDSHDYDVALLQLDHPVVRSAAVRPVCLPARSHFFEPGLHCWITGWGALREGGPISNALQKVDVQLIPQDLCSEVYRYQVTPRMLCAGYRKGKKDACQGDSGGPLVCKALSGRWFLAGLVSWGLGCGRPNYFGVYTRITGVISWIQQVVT
The assay can be described thus: Matriptase 2 fluorescence based inhibition assay, Method B (50 mM TRIS pH 7.5, 150 mM NaCl, 0.01% gelatin). It counts as biochemical. Conditions: 1 uM compound; Assay Used = B (Method B). An outline of the steps:
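Commercial (7 nM) or in-house (15 nM) enzyme preincubated 30 min with compound at 25° C, then 100 μM Boc-Gln-Ala-Arg-AMC added; fluorescence (Ex 360/Em 480 nm) read at 60 min. 1% DMSO final. IC50 from variable-slope sigmoidal fit of % inhibition.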
Regarding `N=C(N)c1ccc2cc(C(=O)N[C@H]3CC[C@H](N)CC3)n(Cc3cncc4ccccc34)c2c1` [Compound I-687], the “Mar-2 % inhibition at 1 uM” value was “C (C represents 50%≤I≤75%)”.
The same measure, in the same setting: as for `N=C(N)c1ccc2cc(NC(=O)[C@H]3CC[C@H](N)CC3)n(Cc3cccc4ccccc34)c2c1` [Compound I-671], the entry is “C (C represents 50%≤I≤75%)”; as for `N=C(N)c1ccc2cc(C(=O)N[C@H]3CC[C@H](N)CC3)n(Cc3ccc(C(N)=O)c4ccccc34)c2c1` [Compound I-642], “C (C represents 50%≤I≤75%)”.

Staying with this assay, now noted: 1 uM compound; Assay Used = B (Method B); read-out: Mar-2 % inhibition at 1 uM.
A word on the inhibition: it is how much of the control response was suppressed. In the case of `N=C(N)c1ccc2cc(C(=O)O)n(Cc3cc(Oc4cccnn4)cc4ccccc34)c2c1` [Compound I-610], the inhibition at 1 µM lay in the range of 25 to 50%.
With `Cc1c(C(=O)N[C@H]2CC[C@H](N)CC2)n(Cc2cccc3ccccc23)c2cc(C(=N)N)ccc12` [Compound I-633], the inhibition at 1 µM was in the range of 75 to 100%.
As to `CC(C)(C)Sc1cccc2c(Cn3c(C(=O)N[C@H]4CC[C@H](N)CC4)cc4ccc(C(=N)N)cc43)cccc12` [Compound I-739], the inhibition at 1 µM fell in the range of 75 to 100%.
Take `COc1ccc(Cn2c(C(=O)N[C@H]3CC[C@H](N)CC3)cc3ccc(C(=N)N)cc32)c2ccccc12` [Compound I-668]: the inhibition at 1 µM lay within 75 to 100%.
Turning to `CCOC(=O)c1cc2ccc(C(=N)NC(=O)OCC(C)C)cc2n1Cc1cc(Oc2ncccn2)cc2ccccc12` [Compound I-607], the inhibition at 1 µM lay in the range of 0 to 25%.
On the same count and under the same terms, the same measure for `N=C(N)c1ccc2cc(C(=O)O)n(Cc3ccc(Oc4ccccc4)c4ccccc34)c2c1` [Compound I-705]: 50 to 75%; for `CCOC(=O)c1cc2ccc(C(=N)N)cc2n1Cc1cc(Oc2ncccn2)cc2ccccc12` [Compound I-598, Ethyl 6-carbamimidoyl-1-((3-(pyrimidin-2-yloxy)naphthalen-1-yl)methyl)-1H-indole-2-carboxylate]: 75 to 100%.
`N=C(N)c1ccc2cc(C(=O)O)n(Cc3cccc4c(COCc5ccccc5)cccc34)c2c1` [Compound I-672]: the inhibition at 1 µM is 75 to 100%.
Still for that read-out and setting: as for `N=C(N)c1ccc2cc(C(=O)N[C@H]3CC[C@H](N)CC3)n(Cc3cc(-c4ccc(Cl)s4)on3)c2c1` [Compound I-773], the figure is 50 to 75%; as for `N=C(N)c1ccc2cc(CC(=O)O)n(Cc3cccc4ccccc34)c2c1` [Compound I-716, 2-(6-carbamimidoyl-1-(naphthalen-1-ylmethyl)-1H-indol-2-yl)acetic Acid], 75 to 100%.
Same read-out and setting: as for `N=C(N)c1ccc2cc(C(=O)Nc3cccc4c3OCCO4)n(Cc3cccc4ccccc34)c2c1` [Compound I-760], the figure is 0 to 25%.
With `N=C(N)c1ccc2cc(C(=O)O)n(Cc3cc(Oc4ccccc4Cl)cc4ccccc34)c2c1` [Compound I-661], the inhibition at 1 µM lay in the range of 25 to 50%.
As to `N=C(N)c1ccc2cc(C(=O)OCCN)n(Cc3cc(Oc4ccccc4)cc4ccccc34)c2c1` [Compound I-629], the inhibition at 1 µM lay within 75 to 100%.
On the same count and under the same terms, the same measure for `N=C(N)c1ccc2cc(C(=O)N[C@H]3CC[C@H](N)CC3)n(Cc3cccc4cc(OCCCc5ccccc5)ccc34)c2c1` [Compound I-770]: 50 to 75%; for `N=C(N)c1ccc2cc(C(=O)O[C@H]3CC[C@@H](N)CC3)n(Cc3cccc4ccccc34)c2c1` [Compound I-744]: 75 to 100%; for `COc1ccccc1Oc1cc(Cn2c(C(=O)N[C@H]3CC[C@H](N)CC3)cc3ccc(C(=N)N)cc32)c2ccccc2c1` [Compound I-700]: 50 to 75%.
Regarding `Cn1c(C(=O)O)c(Cc2cccc3ccccc23)c2cc(C(=N)N)ccc21` [Compound I-689], the inhibition at 1 µM was 75 to 100%.
Same read-out and setting: the same measure for `N=C(N)c1ccc2cc(C(=O)O)n(Cc3cc(Oc4cccnc4)cc4ccccc34)c2c1` [Compound I-626]: 25 to 50%; for `N=C(N)c1ccc2cc(C(=O)NCCO)n(Cc3cccc4ccccc34)c2c1` [Compound I-600]: 75 to 100%; for `N=C(N)c1ccc2cc(C(=O)N[C@H]3CC[C@@H](N)CC3)n(Cc3csc4ccccc34)c2n1` [Compound I-722]: 75 to 100%.
For `CN1CCC(COC(=O)c2cc3ccc(C(=N)N)cc3n2Cc2cccc3ccccc23)CC1` [Compound I-761], the inhibition at 1 µM lay in the range of 75 to 100%.
With `CC(C)OC(=O)NC(=N)c1ccc2cc(C(=O)NC3CCN(C)CC3)n(Cc3cccc4ccccc34)c2c1` [Compound I-784], the inhibition at 1 µM is 25 to 50%.
The same measure, in the same setting: as for `N=C(N)c1ccc2cc(N3CCOC3=O)n(Cc3cccc4ccccc34)c2c1` [Compound I-726, 1-(naphthalen-1-ylmethyl)-2-(2-oxooxazolidin-3-yl)-1H-indole-6-carboximidamide], the figure is 25 to 50%.

The same assay, now with this note: 1 uM compound; Assay Used = B; read-out: Mar-2 % inhibition at 1 uM.
Take `NCc1ccc2cc(C(=O)NC3CCCC(N)C3)n(Cc3cccc4ccccc34)c2c1` (centres unmarked) [Compound I-540]: the inhibition at 1 µM lay in the range of 25 to 50%.
Still for that read-out and setting: as for `N=C(NC(=O)OCC(Cl)(Cl)Cl)c1ccc2cc(C(=O)O)n(Cc3cc(Oc4ncccn4)cc4ccccc34)c2c1` [Compound I-552], the figure is 0 to 25%; as for `NC(=O)c1ccc2cc(-c3nnc([C@H]4CC[C@H](N)CC4)s3)n(Cc3cccc4ccccc34)c2c1` [Compound I-527, 2-(5-((1r,4r)-4-aminocyclohexyl)-1,3,4-thiadiazol-2-yl)-1-(naphthalen-1-ylmethyl)-1H-indole-6-carboxamide], 0 to 25%.
The same measure, in the same setting: the same measure for `N=C(N)c1ccc2cc(C(=O)N[C@H]3CC[C@H](N)CC3)n(CCc3ccc4ccccc4c3)c2c1` [Compound I-410]: 25 to 50%; for `COC(=O)NCCOC(=O)c1cc2ccc(C(=N)N)cc2n1Cc1cc(Oc2ccccc2)cc2ccccc12` [Compound I-555]: 25 to 50%.
As for `N=C(N)c1ccc2cc(C(=O)N[C@H]3CC[C@H](N)CC3)n(Cc3cc(Cl)cc(Cl)c3)c2c1` [Compound I-505], the inhibition at 1 µM fell in the range of 25 to 50%.
On the same count and under the same terms, as for `N=C(N)c1ccc2cc(C(=O)N[C@H]3CC[C@H](N)CC3)n(CCc3cccc4ccccc34)c2c1` [Compound I-409], the figure is 25 to 50%.
Turning to `N=C(N)c1ccc2cc(C(=O)N3CC[C@@H](O)C3)n(Cc3cccc4ccccc34)c2c1` [Compound I-441], the inhibition at 1 µM fell in the range of 25 to 50%.
On to `CCNC(=N)c1ccc2cc(C(=O)N[C@H]3CC[C@H](N)CC3)n(Cc3ccc4ccccc4c3)c2c1` [Compound I-413, N-((1r,4r)-4-aminocyclohexyl)-6-(N-ethylcarbamimidoyl)-1-(naphthalen-2-ylmethyl)-1H-indole-2-carboxamide], for which the inhibition at 1 µM lay within 25 to 50%.
On the same count and under the same terms, the same measure for `COc1ccnc(Oc2cc(Cn3c(C(=O)O)cc4ccc(C(=N)N)cc43)c3ccccc3c2)n1` [Compound I-574]: 25 to 50%; for `N=C(N)c1ccc2cc(C(=O)OCCO)n(Cc3cc(Oc4ncccn4)cc4ccccc34)c2c1` [Compound I-565]: 75 to 100%.
The same measure, in the same setting: as for `CC(C)(C)OC(=O)NC(=N)c1ccc2cc(C(=O)N3CC[C@H](NC(=O)OC(C)(C)C)C3)n(Cc3cccc4ccccc34)c2c1` (stereo in doubt) [Compound I-428], the figure is 0 to 25%; as for `COC(=O)NCCOC(=O)c1cc2ccc(C(=N)N)cc2n1Cc1cc(S(=O)(=O)c2ccccc2)cc2ccccc12` [Compound I-556], 25 to 50%; as for `N=C(N)c1ccc2cc(C(=O)NCCN3CCCCC3)n(Cc3cccc4ccccc34)c2c1` [Compound I-481], 75 to 100%.
On to `N=C(N)c1ccc2cc(C(=O)NCc3ccc(CO)cc3)n(Cc3cccc4ccccc34)c2c1` [Compound I-435], for which the inhibition at 1 µM was in the range of 50 to 75%.
The same measure, in the same setting: the same measure for `N=C(N)c1ccc2cc(C(=O)O)n(Cc3cc(S(N)(=O)=O)cc4ccccc34)c2c1` [Compound I-548]: 25 to 50%; for `COC(=O)NCCNC(=O)c1cc2ccc(C(=N)N)cc2n1Cc1cccc2ccccc12` [Compound I-587]: 75 to 100%.
Same read-out and setting: as for `N=C(N)c1ccc2cc(C(=O)NC3CCCCC3)n(Cc3cccc4ccccc34)c2c1` [Compound I-438], the figure is 25 to 50%.

Staying with this assay, now noted: at 1 uM; Assay Used = B; read-out: Mar-2 % inhibition at 1 uM.
As to `N=C(N)c1ccc(CNC(=O)c2cc3ccc(C(=N)N)cc3n2Cc2cccc3ccccc23)cc1` [Compound I-395], the inhibition at 1 µM was in the range of 75 to 100%.

The same assay, now with this note: compound at 1 uM; Assay Used: B; read-out: Mar-2 % inhibition at 1 uM.
Turning to `N=C(N)c1ccc2cc(-c3nnn[nH]3)n(Cc3cccc4ccccc34)c2c1` [Compound I-803, 1-(naphthalen-1-ylmethyl)-2-(1H-tetrazol-5-yl)-1H-indole-6-carboximidamide], the inhibition at 1 µM fell in the range of 75 to 100%.

The assay is the same for the next values; noted with them: read-out: Mar-2 % inhibition at 1 uM.
Turning to `COC(=O)c1cc2ccc(C(=N)NC(=O)Oc3ccccc3)cc2n1Cc1cccc2ccccc12` [Compound I-738], the inhibition at 1 µM is 0 to 25%.

The values are drawn from US12428415B2, “Matriptase 2 inhibitors and uses thereof” (Disc Medicine, Inc., priority 2018, dated 2025).
